Tested on: platelet aggregation in dog PRP
Test: In-vitro platelet aggregation in PRP (ADP-induced, dog platelet-rich plasma)
Format: cell-based
Conditions: Canis lupus familiaris; for IC50: concentration inhibiting aggregation by 50%; for inhibition at 10 µM: test concentration of 10 μM
Protocol: Compounds of the invention were evaluated by an […] assay to determine compound activity as an inhibitors of platelet aggregation.
Healthy male or female dogs were fasted for 8 hours prior to drawing blood; then 30 mL whole blood was collected using a butterfly needle and 30 cc plastic syringe with 3 ml of 0.129M buffered sodium citrate (3.8%). The syringe was rotated carefully as blood was drawn to mix the citrate. Platelet-rich plasma (PRP) was prepared by centrifugation at 975×g for 3.17 minutes at room temperature, allowing the centrifuge to coast to a stop without braking. The PRP was removed from the blood with a plastic pipette and placed in a plastic capped, 50 ml Corning conical sterile centrifuge tube which was held at room temperature. Platelet poor plasma (PPP) was prepared by centrifuging the remaining blood at 2000×g for 15 minutes at room temperature allowing the centrifuge to coast to a stop without braking. The PRP was adjusted with PPP to a count of 2-3×10^8 s platelets per ml. 400 μL of the PRP preparation and 50 μL of the compound to be tested or saline were preincubated for 1 minute at 37° C. in a BioData aggregometer (BioData, Horsham, Pa.). 50 μL of adenosine 5'diphosphate (ADP) (50 μm final concentration) was added to the cuvettes and the aggregation was monitored for 1 minute. All compounds are tested in duplicate. Inhibition of aggregation for each sample was determined using the formula: % inhibition=(Tinh -Tbas)/(Tagg -Tbas ×100 where Tbas is % of light transmission in PRP (baseline), Tagg is % of light transmission in the aggregated PRP sample (saline control) and Tinh is % of light transmission in the sample containing the inhibitor.

Structure (SMILES)	IC50	inhibition at 10 µM
Cc1ccc(S(=O)(=O)NCC(CC(=O)O)NC(=O)CCCCc2ccc(C(=N)N)cc2)cc1 (racemic) [Example 1, (±)-3-[[5-[4-(Aminoiminomethyl)phenyl]-1-oxopentyl]amino]-4-[[(4-methylphenyl)sulfonyl]amino]butanoic acid]	1 µM	100%
CCOC(=O)CC(CNS(=O)(=O)c1ccc(C)cc1)NC(=O)CCCCc1ccc(C(=N)N)cc1 (racemic) [Example 3, (±) Ethyl-3-[[5-[5-(Aminoiminomethyl)phenyl]-1-oxopentyl]amino]-4-[[(4-methylphenyl)sulfonyl]amino]butanoate]		20%
COc1ccc(S(=O)(=O)NCC(CC(=O)O)NC(=O)CCCCc2ccc(C(=N)N)cc2)cc1 (racemic) [Example 2, (±)-3-[[5-[4-(Aminoiminomethyl)phenyl]-1-oxopentyl]amino]-4-[[(4-methoxyphenyl)sulfonyl]amino]butanoic Acid]	8 µM	100%
